Source: ChEMBL document CHEMBL1781893, “New potent human acetylcholinesterase inhibitors in the tetracyclic triterpene series with inhibitory potency on amyloid β aggregation” (Eur J Med Chem, 2011)

Key:
Acetylcholinesterase [1] = molecular target: Acetylcholinesterase (Electrophorus electricus, UniProt O42275)
Description: Inhibition of Electrophorus electricus AChE using acetylthiocholine iodide as substrate by spectroscopic Ellmans method

Acetylcholinesterase [2] = molecular target: Acetylcholinesterase (Homo sapiens, UniProt P22303)
Description: Inhibition of recombinant human AChE using acetylthiocholine iodide as substrate by spectroscopic Ellmans method

Cholinesterase = Cholinesterase (Homo sapiens, UniProt P06276)
Sequence of Cholinesterase (P06276 whole entry): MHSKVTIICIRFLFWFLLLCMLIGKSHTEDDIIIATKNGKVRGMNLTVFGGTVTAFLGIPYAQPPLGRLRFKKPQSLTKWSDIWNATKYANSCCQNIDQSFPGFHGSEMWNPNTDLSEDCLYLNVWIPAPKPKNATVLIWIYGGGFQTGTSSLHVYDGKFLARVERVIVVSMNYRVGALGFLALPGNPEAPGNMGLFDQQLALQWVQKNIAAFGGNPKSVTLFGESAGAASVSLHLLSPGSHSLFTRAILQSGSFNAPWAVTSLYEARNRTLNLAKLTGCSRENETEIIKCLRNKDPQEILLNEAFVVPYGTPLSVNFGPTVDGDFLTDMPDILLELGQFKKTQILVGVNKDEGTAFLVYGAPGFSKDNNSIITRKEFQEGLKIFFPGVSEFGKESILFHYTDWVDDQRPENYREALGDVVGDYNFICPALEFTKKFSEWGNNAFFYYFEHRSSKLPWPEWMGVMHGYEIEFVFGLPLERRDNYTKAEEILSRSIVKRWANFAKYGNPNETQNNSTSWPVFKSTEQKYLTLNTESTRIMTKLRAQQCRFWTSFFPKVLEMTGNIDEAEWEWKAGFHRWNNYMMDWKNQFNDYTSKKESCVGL
Description: Inhibition of recombinant human serum BChE using butyrylthiocholine iodide as substrate by spectroscopic Ellmans method

Sequence of Acetylcholinesterase (Electrophorus electricus, UniProt O42275) (O42275 whole entry): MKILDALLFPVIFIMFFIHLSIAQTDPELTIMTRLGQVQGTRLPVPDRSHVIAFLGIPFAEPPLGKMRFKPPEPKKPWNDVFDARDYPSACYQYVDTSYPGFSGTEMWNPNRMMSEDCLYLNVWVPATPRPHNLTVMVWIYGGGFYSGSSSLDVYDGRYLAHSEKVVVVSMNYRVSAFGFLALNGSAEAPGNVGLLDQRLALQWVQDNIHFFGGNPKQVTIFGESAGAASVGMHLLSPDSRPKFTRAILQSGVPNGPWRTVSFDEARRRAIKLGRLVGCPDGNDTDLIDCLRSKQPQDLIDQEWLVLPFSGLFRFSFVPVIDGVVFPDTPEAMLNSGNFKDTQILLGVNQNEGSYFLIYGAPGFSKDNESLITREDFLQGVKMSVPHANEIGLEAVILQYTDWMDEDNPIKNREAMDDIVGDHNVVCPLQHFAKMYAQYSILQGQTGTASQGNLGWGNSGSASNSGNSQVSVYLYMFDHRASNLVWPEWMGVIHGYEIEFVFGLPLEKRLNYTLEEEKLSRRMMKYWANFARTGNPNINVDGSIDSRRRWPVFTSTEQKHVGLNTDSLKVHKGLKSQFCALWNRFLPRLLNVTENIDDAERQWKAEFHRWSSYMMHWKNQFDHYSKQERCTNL
Sequence of Acetylcholinesterase (Homo sapiens, UniProt P22303) (P22303 whole entry): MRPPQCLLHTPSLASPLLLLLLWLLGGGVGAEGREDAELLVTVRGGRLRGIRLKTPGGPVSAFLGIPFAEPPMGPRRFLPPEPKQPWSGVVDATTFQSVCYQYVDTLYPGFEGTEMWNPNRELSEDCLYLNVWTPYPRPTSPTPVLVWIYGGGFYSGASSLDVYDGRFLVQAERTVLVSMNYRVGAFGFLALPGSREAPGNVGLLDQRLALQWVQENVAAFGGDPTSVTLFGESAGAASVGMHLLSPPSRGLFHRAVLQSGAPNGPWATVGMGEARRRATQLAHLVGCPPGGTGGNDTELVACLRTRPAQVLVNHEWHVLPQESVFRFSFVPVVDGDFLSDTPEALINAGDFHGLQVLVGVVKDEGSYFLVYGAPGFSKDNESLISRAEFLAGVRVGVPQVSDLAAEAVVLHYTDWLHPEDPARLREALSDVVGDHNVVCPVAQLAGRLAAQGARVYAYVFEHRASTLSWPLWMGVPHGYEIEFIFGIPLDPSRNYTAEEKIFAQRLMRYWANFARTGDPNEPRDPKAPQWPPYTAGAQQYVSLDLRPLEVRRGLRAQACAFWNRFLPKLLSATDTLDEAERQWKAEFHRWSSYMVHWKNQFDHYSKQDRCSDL

C[C@@H]([C@H]1[C@H](O)C[C@@]2(C)[C@@H]3CC[C@H]4[C@]5(C)COC(C(C)(C)F)=N[C@H]5CC[C@@]45C[C@@]35C(=O)C[C@]12C)N(C)C
IC50 (Acetylcholinesterase [1]): 336 nM
IC50 (Acetylcholinesterase [2]): 744 nM
IC50 (Cholinesterase): > 10000 nM

COc1cccc(CN(C)[C@@H](C)[C@H]2[C@H](O)C[C@@]3(C)[C@@H]4CC[C@H]5[C@]6(C)CSC(C(C)C)=N[C@H]6CC[C@@]56C[C@@]46C(=O)C[C@]23C)c1
IC50 (Acetylcholinesterase [1]): 6 nM
IC50 (Acetylcholinesterase [2]): 3 nM
IC50 (Cholinesterase): 477 nM

CC(C)C1=N[C@H]2CC[C@]34C[C@]35C(=O)C[C@]3(C)[C@@H]([C@H](C)N(C)C)[C@H](O)C[C@@]3(C)[C@@H]5CC[C@H]4[C@]2(C)CN1C
IC50 (Acetylcholinesterase [1]): > 10000 nM
IC50 (Acetylcholinesterase [2]): > 10000 nM
IC50 (Cholinesterase): 2950 nM

CC(C)C1=N[C@H]2CC[C@]34C[C@]35C(=O)C[C@]3(C)[C@@H]([C@H](C)N(C)C)[C@H](O)C[C@@]3(C)[C@@H]5CC[C@H]4[C@]2(C)C=C1
IC50 (Acetylcholinesterase [1]): 16 nM
IC50 (Acetylcholinesterase [2]): 25 nM
IC50 (Cholinesterase): 679 nM

COc1ccc(CN(C)[C@@H](C)[C@H]2[C@H](O)C[C@@]3(C)[C@@H]4CC[C@H]5[C@]6(C)CSC(C(C)C)=N[C@H]6CC[C@@]56C[C@@]46C(=O)C[C@]23C)cc1
IC50 (Acetylcholinesterase [1]): 18 nM
IC50 (Acetylcholinesterase [2]): 9 nM
IC50 (Cholinesterase): 217 nM

CC(C)C1=N[C@H]2CC[C@]34C[C@]35C(=O)C[C@]3(C)[C@@H]([C@H](C)N(C)Cc6ccc(C(F)(F)F)cc6)[C@H](O)C[C@@]3(C)[C@@H]5CC[C@H]4[C@]2(C)CS1
IC50 (Acetylcholinesterase [1]): 7 nM
IC50 (Acetylcholinesterase [2]): 3 nM
IC50 (Cholinesterase): > 10000 nM

CC(C)C1=N[C@H]2CC[C@]34C[C@]35C(=O)C[C@]3(C)[C@@H]([C@H](C)N(C)C(=O)c6ccccc6)[C@H](O)C[C@@]3(C)[C@@H]5CC[C@H]4[C@]2(C)CS1
IC50 (Acetylcholinesterase [1]): 37 nM
IC50 (Acetylcholinesterase [2]): 43 nM
IC50 (Cholinesterase): > 1000 nM

CCN1C[C@]2(C)[C@H](CC=C3C[C@H]4C(=O)C[C@]5(C)[C@@H]([C@H](C)N(C)C)[C@H](O)C[C@@]5(C)[C@@H]4CC[C@H]32)N=C1C(C)C
IC50 (Acetylcholinesterase [1]): > 10000 nM
IC50 (Acetylcholinesterase [2]): > 10000 nM
IC50 (Cholinesterase): 3330 nM

CC(C)C1=N[C@H]2CC[C@]34C[C@]35C(=O)C[C@]3(C)[C@@H]([C@H](C)N(C)CCN6C(=O)c7ccccc7C6=O)[C@H](O)C[C@@]3(C)[C@@H]5CC[C@H]4[C@]2(C)CS1
IC50 (Acetylcholinesterase [1]): 24 nM
IC50 (Acetylcholinesterase [2]): 70 nM
IC50 (Cholinesterase): 653 nM

CN[C@@H](C)[C@H]1[C@H](O)C[C@@]2(C)[C@@H]3CC[C@H]4[C@]5(C)CSC(C(C)C)=N[C@H]5CC[C@@]45C[C@@]35C(=O)C[C@]12C
IC50 (Acetylcholinesterase [1]): 45 nM
IC50 (Acetylcholinesterase [2]): 76 nM
IC50 (Cholinesterase): 1340 nM

CC(C)C1=N[C@H]2CC[C@]34C[C@]35C(=O)C[C@]3(C)[C@@H]([C@H](C)N(C)CCCc6ccccc6)[C@H](O)C[C@@]3(C)[C@@H]5CC[C@H]4[C@]2(C)CS1
IC50 (Acetylcholinesterase [1]): 79 nM
IC50 (Acetylcholinesterase [2]): 76 nM
IC50 (Cholinesterase): 1430 nM

CC(C)C1=N[C@H]2CC[C@]34C[C@]35C(=O)C[C@]3(C)[C@@H]([C@H](C)N(C)Cc6ccccc6)[C@H](O)C[C@@]3(C)[C@@H]5CC[C@H]4[C@]2(C)CS1
IC50 (Acetylcholinesterase [1]): 13 nM
IC50 (Acetylcholinesterase [2]): 7 nM
IC50 (Cholinesterase): 554 nM

COc1ccccc1CN(C)[C@@H](C)[C@H]1[C@H](O)C[C@@]2(C)[C@@H]3CC[C@H]4[C@]5(C)CSC(C(C)C)=N[C@H]5CC[C@@]45C[C@@]35C(=O)C[C@]12C
IC50 (Acetylcholinesterase [1]): 12 nM
IC50 (Acetylcholinesterase [2]): 6 nM
IC50 (Cholinesterase): 333 nM

C[C@@H]([C@H]1[C@H](O)C[C@@]2(C)[C@@H]3CC[C@H]4[C@]5(C)COC(C(F)(C(F)(F)F)C(F)(F)F)=N[C@H]5CC[C@@]45C[C@@]35C(=O)C[C@]12C)N(C)C
IC50 (Acetylcholinesterase [1]): 1700 nM
IC50 (Acetylcholinesterase [2]): 3000 nM
IC50 (Cholinesterase): > 10000 nM

CC(=O)N(C)[C@@H](C)[C@H]1[C@H](O)C[C@@]2(C)[C@@H]3CC[C@H]4[C@]5(C)CSC(C(C)C)=N[C@H]5CC[C@@]45C[C@@]35C(=O)C[C@]12C
IC50 (Acetylcholinesterase [1]): 139 nM
IC50 (Acetylcholinesterase [2]): 298 nM
IC50 (Cholinesterase): > 10000 nM

CC(C)C1=N[C@H]2CC[C@]34C[C@]35C(=O)C[C@]3(C)[C@@H]([C@H](C)N(C)C)[C@H](O)C[C@@]3(C)[C@@H]5CC[C@H]4[C@]2(C)CN1
IC50 (Acetylcholinesterase [1]): > 10000 nM

CC(C)C1=N[C@H]2CC[C@]34C[C@]35C(=O)C[C@]3(C)[C@@H]([C@H](C)N(C)Cc6cccc(C(F)(F)F)c6)[C@H](O)C[C@@]3(C)[C@@H]5CC[C@H]4[C@]2(C)CS1
IC50 (Acetylcholinesterase [1]): 9 nM
IC50 (Acetylcholinesterase [2]): 3 nM
IC50 (Cholinesterase): > 10000 nM

CC(C)C1=N[C@H]2CC[C@]34C[C@]35C(=O)C[C@]3(C)[C@@H]([C@H](C)N(C)C)[C@H](O)C[C@@]3(C)[C@@H]5CC[C@H]4[C@]2(C)CC1
IC50 (Acetylcholinesterase [1]): 294 nM
IC50 (Acetylcholinesterase [2]): 618 nM
IC50 (Cholinesterase): > 10000 nM

CC(C)C1=N[C@H]2CC[C@]34C[C@]35C(=O)C[C@]3(C)[C@@H]([C@H](C)N(C)Cc6ccccc6C(F)(F)F)[C@H](O)C[C@@]3(C)[C@@H]5CC[C@H]4[C@]2(C)CS1
IC50 (Acetylcholinesterase [1]): 24 nM
IC50 (Acetylcholinesterase [2]): 11 nM
IC50 (Cholinesterase): > 10000 nM

CC(C)C1=N[C@H]2CC[C@]34C[C@]35C(=O)C[C@]3(C)[C@@H]([C@H](C)N(C)C)[C@H](O)C[C@@]3(C)[C@@H]5CC[C@H]4[C@]2(C)N1
IC50 (Acetylcholinesterase [1]): > 10000 nM
IC50 (Acetylcholinesterase [2]): > 10000 nM
IC50 (Cholinesterase): 7220 nM

CC(C)C1=N[C@H]2CC[C@]34C[C@]35C(=O)C[C@]3(C)[C@@H]([C@H](C)N(C)C(=O)OC(C)(C)C)[C@H](O)C[C@@]3(C)[C@@H]5CC[C@H]4[C@]2(C)CS1
IC50 (Acetylcholinesterase [1]): 186 nM
IC50 (Acetylcholinesterase [2]): 159 nM
IC50 (Cholinesterase): > 10000 nM

CC(C)C1=N[C@H]2CC[C@]34C[C@]35C(=O)C[C@]3(C)[C@@H]([C@H](C)N(C)CCCN6C(=O)c7ccccc7C6=O)[C@H](O)C[C@@]3(C)[C@@H]5CC[C@H]4[C@]2(C)CS1
IC50 (Acetylcholinesterase [1]): 14 nM
IC50 (Acetylcholinesterase [2]): 14 nM
IC50 (Cholinesterase): 224 nM

CC(C)C1=N[C@H]2CC[C@]34C[C@]35C(=O)C[C@]3(C)[C@@H]([C@H](C)N(C)CCc6ccccc6)[C@H](O)C[C@@]3(C)[C@@H]5CC[C@H]4[C@]2(C)CS1
IC50 (Acetylcholinesterase [1]): 14 nM
IC50 (Acetylcholinesterase [2]): 20 nM
IC50 (Cholinesterase): 501 nM

C[C@@H]([C@H]1[C@H](O)C[C@@]2(C)[C@@H]3CC[C@H]4[C@]5(C)COC(C(F)(F)F)=N[C@H]5CC[C@@]45C[C@@]35C(=O)C[C@]12C)N(C)C
IC50 (Acetylcholinesterase [1]): > 10000 nM
IC50 (Acetylcholinesterase [2]): > 10000 nM
IC50 (Cholinesterase): > 10000 nM

CC(C)C1=N[C@H]2CC[C@]34C[C@]35C(=O)C[C@]3(C)[C@@H]([C@H](C)N(C)C)[C@H](O)C[C@@]3(C)[C@@H]5CC[C@H]4[C@]2(C)CS1
IC50 (Acetylcholinesterase [1]): 38 nM
IC50 (Acetylcholinesterase [2]): 60 nM
IC50 (Cholinesterase): 5370 nM
